Data taken from patent US10800791B2, “Triazole ACC inhibitors and uses thereof” (Gilead Apollo, LLC, priority 2015, dated 2020).
Values after ≈ are worked out from the molar mass of the structure shown. Where two headings read alike, the source gives them in different places.

How the values were obtained:
Botrtyis cinerea (Bc) = assay: Growth inhibition assay of fungal pathogens, Bc; format: cell-based; details: 48 h
Summary of the method: (§1)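 Spores from sub-cultured plates were diluted in 17% V8 liquid medium and exposed to compound from DMSO stocks at final concentrations of 50, 10 and 2 ppm or 2, 0.4 and 0.08 ppm. OD600 and visual ratings at 48 h were compared with the 2% DMSO control to give percent growth inhibition.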

[1] = system: Phytophthora capsici (Pc); assay: Growth inhibition assay of fungal pathogens, Pc; format: cell-based; details: 48 h
Summary of the method: as §1

[2] = system: Fusarium virguliforme (Fv); assay: Growth inhibition assay of fungal pathogens, Fv; format: cell-based; details: 48 h
Summary of the method: as §1

Rhizoctonia solani (Rs) = assay: Growth inhibition assay of fungal pathogens, Rs; format: cell-based; details: 48 h
C. krusei = assay: Antifungal Activity Assay (broth microtiter MIC), C. krusei; format: cell-based, Candida krusei; details: Pichia kudriavzevii, ATCC6258, 48 h
Summary of the method: (§2)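 Colonies from 24 h Sabouraud dextrose agar plates (35° C) are suspended in RPMI 1640+MOPS and diluted to give 2.5×10^3 CFU/mL in the wells. Plates are set up per CLSI M27-A3. Visual MIC is recorded at 48 h.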

[3] = system: Fusarium moniliforme (Fm); assay: Growth inhibition assay of fungal pathogens, Fm; format: cell-based; details: for IC90: Fusarium verticillioides, 48 h, read-out: Concentration at 90% Inhibition Fm
Summary of the method: as §1

fungal (fACC2) = fungal (fACC2) (UniProt Q00955); details: read-out: fACC2 (in vitro ACC2 Inhibition Assay, IC50), ADP-Glo, 5 nM ACC2, 20 μM ATP, 20 μM acetyl-CoA
Sequence of fungal (fACC2) (Q00955 whole entry): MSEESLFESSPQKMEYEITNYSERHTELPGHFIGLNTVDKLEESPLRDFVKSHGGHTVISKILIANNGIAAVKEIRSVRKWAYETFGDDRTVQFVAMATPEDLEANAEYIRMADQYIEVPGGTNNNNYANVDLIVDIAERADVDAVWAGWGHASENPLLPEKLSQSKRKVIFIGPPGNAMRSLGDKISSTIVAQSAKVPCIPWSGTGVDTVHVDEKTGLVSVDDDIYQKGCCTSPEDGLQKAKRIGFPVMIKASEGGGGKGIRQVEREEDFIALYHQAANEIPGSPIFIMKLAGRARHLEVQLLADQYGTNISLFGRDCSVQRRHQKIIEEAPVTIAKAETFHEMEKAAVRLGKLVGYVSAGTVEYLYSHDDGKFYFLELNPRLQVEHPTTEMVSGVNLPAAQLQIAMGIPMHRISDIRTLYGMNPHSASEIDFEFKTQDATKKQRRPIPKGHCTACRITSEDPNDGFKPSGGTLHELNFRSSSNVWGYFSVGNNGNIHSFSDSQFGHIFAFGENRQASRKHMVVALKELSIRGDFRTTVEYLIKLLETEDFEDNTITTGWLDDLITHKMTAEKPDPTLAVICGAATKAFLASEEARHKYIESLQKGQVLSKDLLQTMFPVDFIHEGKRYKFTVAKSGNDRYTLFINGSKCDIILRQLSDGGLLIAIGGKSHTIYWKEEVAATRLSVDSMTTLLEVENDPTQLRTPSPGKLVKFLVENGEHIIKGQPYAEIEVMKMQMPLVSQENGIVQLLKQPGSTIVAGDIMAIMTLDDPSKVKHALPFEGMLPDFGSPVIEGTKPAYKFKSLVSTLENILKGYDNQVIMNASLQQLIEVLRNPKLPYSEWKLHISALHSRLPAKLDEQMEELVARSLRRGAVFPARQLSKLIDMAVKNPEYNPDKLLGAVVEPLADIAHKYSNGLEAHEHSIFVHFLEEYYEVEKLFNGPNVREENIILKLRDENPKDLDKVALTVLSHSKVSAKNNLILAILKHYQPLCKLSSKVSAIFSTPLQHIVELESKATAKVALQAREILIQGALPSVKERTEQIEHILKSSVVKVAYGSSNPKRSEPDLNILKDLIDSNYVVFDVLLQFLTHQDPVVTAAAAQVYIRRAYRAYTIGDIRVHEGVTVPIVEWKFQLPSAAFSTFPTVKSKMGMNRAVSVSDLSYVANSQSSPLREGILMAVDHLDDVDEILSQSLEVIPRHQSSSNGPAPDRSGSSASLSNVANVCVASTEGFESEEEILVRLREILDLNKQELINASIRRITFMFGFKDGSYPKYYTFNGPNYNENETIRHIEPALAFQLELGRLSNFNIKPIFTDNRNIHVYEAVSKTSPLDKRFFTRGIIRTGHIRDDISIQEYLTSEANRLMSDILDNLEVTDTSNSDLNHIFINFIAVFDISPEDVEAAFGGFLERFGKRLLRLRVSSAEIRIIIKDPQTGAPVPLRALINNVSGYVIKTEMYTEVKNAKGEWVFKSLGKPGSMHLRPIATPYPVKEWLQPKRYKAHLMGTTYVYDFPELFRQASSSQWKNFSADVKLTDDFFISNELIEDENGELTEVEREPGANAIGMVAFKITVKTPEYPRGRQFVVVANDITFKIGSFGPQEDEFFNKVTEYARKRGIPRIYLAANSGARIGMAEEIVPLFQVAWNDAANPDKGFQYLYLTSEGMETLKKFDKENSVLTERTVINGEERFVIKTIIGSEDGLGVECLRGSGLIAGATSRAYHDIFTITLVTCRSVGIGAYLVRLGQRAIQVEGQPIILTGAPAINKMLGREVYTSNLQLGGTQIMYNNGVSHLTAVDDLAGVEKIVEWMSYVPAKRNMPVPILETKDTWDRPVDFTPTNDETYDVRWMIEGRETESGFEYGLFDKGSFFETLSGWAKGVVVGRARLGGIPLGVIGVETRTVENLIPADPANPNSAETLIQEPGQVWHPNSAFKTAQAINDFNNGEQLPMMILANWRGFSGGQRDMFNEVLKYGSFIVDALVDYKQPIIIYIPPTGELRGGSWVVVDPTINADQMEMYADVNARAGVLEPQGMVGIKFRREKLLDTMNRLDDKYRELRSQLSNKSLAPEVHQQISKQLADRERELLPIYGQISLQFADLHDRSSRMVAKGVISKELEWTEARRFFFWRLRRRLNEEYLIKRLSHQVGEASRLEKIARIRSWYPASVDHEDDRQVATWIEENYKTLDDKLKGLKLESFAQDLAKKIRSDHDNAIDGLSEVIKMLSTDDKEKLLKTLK

human (hACC2) = human (hACC2) (Homo sapiens, UniProt O00763); assay: In vitro ACC inhibition assay (ADP-Glo), hACC2; format: biochemical; details: 5 nM ACC2, 20 μM ATP, 20 μM acetyl-CoA
Sequence of human (hACC2) (O00763 whole entry): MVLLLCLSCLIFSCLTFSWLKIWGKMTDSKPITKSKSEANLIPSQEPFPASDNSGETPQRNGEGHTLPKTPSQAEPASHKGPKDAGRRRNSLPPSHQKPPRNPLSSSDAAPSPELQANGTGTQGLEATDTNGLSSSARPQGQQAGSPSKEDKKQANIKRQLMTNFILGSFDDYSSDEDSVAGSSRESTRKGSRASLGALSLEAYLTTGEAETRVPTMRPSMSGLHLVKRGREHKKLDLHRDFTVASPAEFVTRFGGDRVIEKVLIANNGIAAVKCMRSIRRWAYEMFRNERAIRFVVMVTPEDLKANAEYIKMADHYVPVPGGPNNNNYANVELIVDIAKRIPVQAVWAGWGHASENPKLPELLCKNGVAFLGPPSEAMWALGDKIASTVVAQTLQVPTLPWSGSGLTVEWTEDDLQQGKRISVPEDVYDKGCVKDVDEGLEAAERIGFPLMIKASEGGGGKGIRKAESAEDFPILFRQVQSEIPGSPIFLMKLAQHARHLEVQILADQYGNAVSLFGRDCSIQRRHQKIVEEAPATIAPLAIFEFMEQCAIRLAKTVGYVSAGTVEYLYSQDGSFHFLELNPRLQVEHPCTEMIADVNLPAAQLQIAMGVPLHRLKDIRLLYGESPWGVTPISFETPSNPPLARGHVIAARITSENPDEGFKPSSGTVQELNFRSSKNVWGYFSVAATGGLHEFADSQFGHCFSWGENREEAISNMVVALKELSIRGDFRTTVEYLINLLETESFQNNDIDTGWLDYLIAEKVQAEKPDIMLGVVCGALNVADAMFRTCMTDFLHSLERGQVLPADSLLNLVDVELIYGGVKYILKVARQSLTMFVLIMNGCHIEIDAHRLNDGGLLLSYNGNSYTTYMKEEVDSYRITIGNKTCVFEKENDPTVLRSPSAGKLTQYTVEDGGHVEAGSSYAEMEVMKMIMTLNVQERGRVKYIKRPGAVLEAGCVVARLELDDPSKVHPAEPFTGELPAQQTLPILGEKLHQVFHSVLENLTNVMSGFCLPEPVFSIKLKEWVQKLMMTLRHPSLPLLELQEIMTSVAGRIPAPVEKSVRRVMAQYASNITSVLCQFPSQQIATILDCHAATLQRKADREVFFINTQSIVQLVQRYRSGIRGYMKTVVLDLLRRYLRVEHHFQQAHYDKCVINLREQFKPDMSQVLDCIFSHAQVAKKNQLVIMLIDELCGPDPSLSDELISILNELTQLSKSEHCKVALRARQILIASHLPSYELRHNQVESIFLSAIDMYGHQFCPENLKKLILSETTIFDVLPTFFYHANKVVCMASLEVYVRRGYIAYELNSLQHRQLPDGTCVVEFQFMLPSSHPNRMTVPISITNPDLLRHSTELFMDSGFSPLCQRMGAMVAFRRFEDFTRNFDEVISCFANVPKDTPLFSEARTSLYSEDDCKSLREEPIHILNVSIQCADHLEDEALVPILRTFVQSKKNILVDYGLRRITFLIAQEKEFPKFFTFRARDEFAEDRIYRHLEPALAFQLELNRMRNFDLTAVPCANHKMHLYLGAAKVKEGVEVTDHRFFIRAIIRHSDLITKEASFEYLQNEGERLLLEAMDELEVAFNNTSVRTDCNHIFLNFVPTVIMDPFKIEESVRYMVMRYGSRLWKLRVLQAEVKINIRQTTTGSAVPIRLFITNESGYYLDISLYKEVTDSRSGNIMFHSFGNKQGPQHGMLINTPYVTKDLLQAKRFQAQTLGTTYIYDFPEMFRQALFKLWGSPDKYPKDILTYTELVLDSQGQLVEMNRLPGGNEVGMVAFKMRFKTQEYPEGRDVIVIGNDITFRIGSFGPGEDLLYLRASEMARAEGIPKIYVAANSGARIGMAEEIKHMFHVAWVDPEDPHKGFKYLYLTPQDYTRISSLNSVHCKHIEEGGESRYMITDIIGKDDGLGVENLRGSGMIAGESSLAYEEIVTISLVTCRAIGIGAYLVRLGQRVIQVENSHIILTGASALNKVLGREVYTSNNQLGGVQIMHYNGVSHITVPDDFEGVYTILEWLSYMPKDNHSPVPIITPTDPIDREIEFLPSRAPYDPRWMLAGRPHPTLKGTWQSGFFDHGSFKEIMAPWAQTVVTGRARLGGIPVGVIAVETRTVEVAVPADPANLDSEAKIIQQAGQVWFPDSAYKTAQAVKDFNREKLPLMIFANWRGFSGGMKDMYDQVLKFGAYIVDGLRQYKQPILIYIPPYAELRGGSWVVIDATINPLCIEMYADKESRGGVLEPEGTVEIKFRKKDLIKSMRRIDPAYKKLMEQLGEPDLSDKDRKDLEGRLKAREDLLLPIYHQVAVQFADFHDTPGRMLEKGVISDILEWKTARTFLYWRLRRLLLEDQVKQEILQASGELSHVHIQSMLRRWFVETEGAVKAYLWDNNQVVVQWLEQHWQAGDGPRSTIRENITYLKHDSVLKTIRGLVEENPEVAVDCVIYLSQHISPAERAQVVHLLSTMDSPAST
Description: The detailed procedure is as follows. […] 10 μL ADP glo reagent was added. […] 20 μL kinase detection reagent was added.

Septoria tritici (St) = assay: Growth inhibition assay of fungal pathogens, St; format: cell-based; details: Zymoseptoria tritici, 48 h
Summary of the method: as §1

C. parapsilosis = assay: Antifungal Activity Assay (broth microtiter MIC), C. parapsilosis; format: cell-based, Candida parapsilosis; details: Lodderomyces parapsilosis, ATCC22019, 48 h
Summary of the method: as §2

[4] = read-out: Concentration at 90% Inhibition Bc, Botrtyis cinerea, growth inhibition at 48 hours vs 2% DMSO control
[5] = read-out: Concentration at 90% Inhibition Bc, Botrtyis cinerea, growth inhibition vs 2% DMSO control at 48 hours
[6] = read-out: Concentration at 90% Inhibition Pc, Phytophthora capsici, growth inhibition at 48 hours vs 2% DMSO control
[7] = read-out: Concentration at 90% Inhibition Pc, Phytophthora capsici, growth inhibition vs 2% DMSO control at 48 hours
[8] = read-out: Concentration at 90% Inhibition Fv, Fusarium virguliforme, growth inhibition at 48 hours vs 2% DMSO control
[9] = read-out: Concentration at 90% Inhibition Fv, Fusarium virguliforme, growth inhibition vs 2% DMSO control at 48 hours
[10] = read-out: Concentration at 90% Inhibition Rs, Rhizoctonia solani, mycelial plugs, growth inhibition at 48 hours vs 2% DMSO control
[11] = read-out: Concentration at 90% Inhibition Rs, Rhizoctonia solani, mycelial plugs, growth inhibition vs 2% DMSO control at 48 hours
[12] = read-out: MIC, C. krusei ATCC 6258, Table 3a, 3 replicates, MIC recorded at 48 h
[13] = read-out: MIC, C. krusei ATCC 6258, Table 3b (additional results), 3 replicates, MIC recorded at 48 h
[14] = Fusarium moniliforme, growth inhibition at 48 hours vs 2% DMSO control
[15] = read-out: Concentration at 90% Inhibition St, Septoria tritici, growth inhibition at 48 hours vs 2% DMSO control
[16] = read-out: Concentration at 90% Inhibition St, Septoria tritici, growth inhibition vs 2% DMSO control at 48 hours
[17] = read-out: MIC, C. parapsilosis ATCC 22019, Table 3a, 3 replicates, MIC recorded at 48 h
[18] = read-out: MIC, C. parapsilosis ATCC 22019, Table 3b (additional results), 3 replicates, MIC recorded at 48 h

Row | Structure (SMILES) | IC90 (Botrtyis cinerea (Bc); [4]) [mg/L] | IC90 (Botrtyis cinerea (Bc); [5]) [mg/L] | IC90 [1, 6] [mg/L] | IC90 [1, 7] [mg/L] | IC90 [2, 8] [mg/L] | IC90 [2, 9] [mg/L] | IC90 (Rhizoctonia solani (Rs); [10]) [mg/L] | IC90 (Rhizoctonia solani (Rs); [11]) [mg/L] | MIC (C. krusei; [12]) [mg/L] | MIC (C. krusei; [13]) [mg/L] | Concentration at 90% Inhibition Fm [3, 14] | IC90 [3] [mg/L] | IC50 (fungal (fACC2); Table 2a) [nM] | IC50 (fungal (fACC2); Table 2b, additional results) [nM] | IC50 (human (hACC2); Table 2a) [nM] | IC50 (human (hACC2); Table 2b, additional results) [nM] | IC90 (Septoria tritici (St); [15]) [mg/L] | IC90 (Septoria tritici (St); [16]) [mg/L] | MIC (C. parapsilosis; [17]) [mg/L] | MIC (C. parapsilosis; [18]) [mg/L] | other results
1 | COc1ccc(F)cc1[C@H](Cn1c(=O)n(C(C)(C)C(=O)NC2CCCCC2)c(=O)c2c(C)c(-n3nccn3)sc21)OC1CCOCC1 [Compound I-28, (R)—N-cyclohexyl-2-(1-(2-(5-fluoro-2-methoxyphenyl)-2-((tetrahydro-2H-pyran-4-yl)oxy)ethyl)-5-methyl-2,4-dioxo-6-(2H-1,2,3-triazol-2-yl)-1,4-dihydrothieno[2,3-d]pyrimidin-3(2H)-yl)-2-methylpropanamide] | 0.4 (≈ 0.598 µM) | 0.4 (≈ 0.598 µM) | > 50 | > 50 | 0.4 (≈ 0.598 µM) | 0.4 (≈ 0.598 µM) | 0.4 (≈ 0.598 µM) | 0.4 (≈ 0.598 µM) | 0.06 to 0.24 (≈ 0.0897 to 0.359 µM) | 0.06 to 0.249 (≈ 0.0897 to 0.372 µM) | AA (compound concentration of 0.08 ppm at 90% inhibition of fungal pathogens) | 0.08 (≈ 0.12 µM) | 1 to 5 | 1 to 5 | 10 to 40 | 10 to 40 | 2 (≈ 2.99 µM) | 10 (≈ 15 µM) | 0.25 to 1 (≈ 0.374 to 1.5 µM) | 0.25 to 1 (≈ 0.374 to 1.5 µM) | –
2 | COc1ccc(F)cc1[C@H](Cn1c(=O)n(C(C)(C)C(=O)NCC(C)C)c(=O)c2c(C)c(-n3nccn3)sc21)OC1CCOCC1 [Compound I-29, (R)-2-(1-(2-(5-fluoro-2-methoxyphenyl)-2-((tetrahydro-2H-pyran-4-yl)oxy)ethyl)-5-methyl-2,4-dioxo-6-(2H-1,2,3-triazol-2-yl)-1,4-dihydro-thieno[2,3-d]pyrimidin-3(2H)-yl)-N-isobutyl-2-methylpropanamide] | – | – | – | – | – | – | – | – | – | – | – | – | 1 to 5 | 1 to 5 | 5 to 10 | 5 to 10 | – | – | – | – | IC90 (Botrtyis cinerea (Bc); Botrtyis cinerea, growth inhibition at 48 hours vs 2% DMSO control, read-out: Concentration at 90% Inhibition Bc): 0.4 mg/L (≈ 0.622 µM); IC90 (Botrtyis cinerea (Bc); Botrtyis cinerea, growth inhibition vs 2% DMSO control at 48 hours, read-out: Concentration at 90% Inhibition Bc): 0.4 mg/L (≈ 0.622 µM); IC90 ([1]; growth inhibition at 48 hours vs 2% DMSO control, read-out: Concentration at 90% Inhibition Pc): > 50 mg/L; IC90 ([1]; growth inhibition vs 2% DMSO control at 48 hours, read-out: Concentration at 90% Inhibition Pc): > 50 mg/L; IC90 ([2]; growth inhibition at 48 hours vs 2% DMSO control, read-out: Concentration at 90% Inhibition Fv): 0.4 mg/L (≈ 0.622 µM); IC90 ([2]; growth inhibition vs 2% DMSO control at 48 hours, read-out: Concentration at 90% Inhibition Fv): 0.4 mg/L (≈ 0.622 µM); IC90 (Rhizoctonia solani (Rs); mycelial plugs, growth inhibition at 48 hours vs 2% DMSO control, read-out: Concentration at 90% Inhibition Rs): 2 mg/L (≈ 3.11 µM); IC90 (Rhizoctonia solani (Rs); mycelial plugs, growth inhibition vs 2% DMSO control at 48 hours, read-out: Concentration at 90% Inhibition Rs): 2 mg/L (≈ 3.11 µM); MIC (C. krusei; Table 3a, ATCC 6258, 3 replicates, MIC recorded at 48 h, read-out: MIC, C. krusei ATCC 6258): 0.06 to 0.24 mg/L (≈ 0.0933 to 0.373 µM); MIC (C. krusei; Table 3b (additional results), ATCC 6258, 3 replicates, MIC recorded at 48 h, read-out: MIC, C. krusei ATCC 6258): 0.06 to 0.249 mg/L (≈ 0.0933 to 0.387 µM); IC90 [3, 14]: 0.08 mg/L (≈ 0.124 µM); IC90 ([3]; Fusarium moniliforme, growth inhibition vs 2% DMSO control at 48 hours): 0.08 mg/L (≈ 0.124 µM); IC90 (Septoria tritici (St); Septoria tritici, growth inhibition at 48 hours vs 2% DMSO control, read-out: Concentration at 90% Inhibition St): 10 mg/L (≈ 15.6 µM); IC90 (Septoria tritici (St); Septoria tritici, growth inhibition vs 2% DMSO control at 48 hours, read-out: Concentration at 90% Inhibition St): > 50 mg/L; MIC (C. parapsilosis; Table 3a, ATCC 22019, 3 replicates, MIC recorded at 48 h, read-out: MIC, C. parapsilosis ATCC 22019): 0.25 to 1 mg/L (≈ 0.389 to 1.56 µM); MIC (C. parapsilosis; Table 3b (additional results), ATCC 22019, 3 replicates, MIC recorded at 48 h, read-out: MIC, C. parapsilosis ATCC 22019): 0.25 to 1 mg/L (≈ 0.389 to 1.56 µM)
3 | COc1ccc(F)cc1[C@H](Cn1c(=O)n(C(C)(C)C(=O)N2CCCCC2)c(=O)c2c(C)c(-n3nccn3)sc21)OC1CCC(=O)CC1 [Compound I-34, (R)-1-(2-(5-fluoro-2-methoxyphenyl)-2-((4-oxocyclohexyl)oxy)ethyl)-5-methyl-3-(2-methyl-1-oxo-1-(piperidin-1-yl)propan-2-yl)-6-(2H-1,2,3-triazol-2-yl)thieno[2,3-d]pyrimidine-2,4(1H,3H)-dione] | 0.4 (≈ 0.6 µM) | 0.4 (≈ 0.6 µM) | > 50 | > 50 | 0.4 (≈ 0.6 µM) | 0.4 (≈ 0.6 µM) | 2 (≈ 3 µM) | 2 (≈ 3 µM) | 0.25 to 1 (≈ 0.375 to 1.5 µM) | 1.01 to 2 (≈ 1.51 to 3 µM) | AA (compound concentration of 0.08 ppm at 90% inhibition of fungal pathogens) | 0.08 (≈ 0.12 µM) | 1 to 5 | 1 to 5 | 5 to 10 | 5 to 10 | > 50 | > 50 | 0.25 to 1 (≈ 0.375 to 1.5 µM) | 0.25 to 1 (≈ 0.375 to 1.5 µM) | –
